# Measurements from article PMC5515969, “Effects of 31 FDA approved small-molecule kinase inhibitors on isolated rat liver mitochondria” (Archives of Toxicology, 2016).
# Assays:
# [1] = tested on: isolated rat liver mitochondria; assay: Mitochondrial oxygen consumption (glutamate/malate or succinate driven, state 4 and state 3); format: biochemical; settings: DMSO treated samples set as 1; as to State 3 respiration driven by succinate at 10XCmax: key: 0 indicates that the drug had no effects (negative); as to State 3 respiration driven by succinate at 1XCmax: key: 0 indicates that the drug had no effects (negative)
# Outline: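 Rat liver mitochondria (1 mg/ml protein) exposed 5 min to kinase inhibitors in 0.1% DMSO, then O2 consumption measured by Clark-type electrode with glutamate/malate or succinate (state 4), ADP added after 3 min (state 3). Rates normalized to 0.1% DMSO controls set to 1.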
# RCC I = RCC I activity in submitochondrial particles; format: biochemical, rat; set-up: key to RCC I at 10XCmax / RCC I at 100XCmax / RCC I at 50XCmax / RCC I at 30XCmax / RCC I at 20XCmax: activity relative to DMSO-treated controls (control set as 1 = 100%); settings: 10XCmax; DMSO treated samples set as 1
# Outline: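 Abs 340 nm (I/V) or 600 nm (II), 1-min reads × 6 min; 550 nm (III, IV), 10-s reads × 2 min. RCC I = rotenone-free minus rotenone rate. DMSO control = 1.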
# RCC II = target: T1, RCC II (Rattus norvegicus, UniProt P21913+Q641Z9+Q6PCT8+Q920L2); assay: RCC II activity in submitochondrial particles; format: biochemical; set-up: key: activity relative to DMSO-treated controls (control set as 1 = 100%); settings: DMSO treated samples set as 1
# T1 construct: Submitochondrial particles were prepared by subjecting the intact mitochondria to three successive freeze–thaw cycles; from tissue; host or cells: rat liver mitochondria, used as submitochondrial particles
# Outline: (§1)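 Kinase inhibitors were preincubated 15 min with submitochondrial particles (1 mg/ml) before complex activities were measured. RCC I was the rotenone-sensitive portion (activity without minus with rotenone). RCC I/V was read at 340 nm and RCC II at 600 nm every 1 min for 6 min. RCC III and IV were read at 550 nm every 10 s for 2 min. Activities are normalized to DMSO controls set as 1.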
# RCC III = RCC III activity in submitochondrial particles; format: biochemical, rat; set-up: key to RCC III at 100XCmax: activity relative to DMSO-treated controls (control set as 1 = 100%); settings: 100XCmax
# Procedure: (§2) KIs were incubated with submitochondrial particles (1 mg/ml) for 15 min and then RCC I–V activities measured. […] The activities of DMSO-treated samples (controls) were set as 1. […] The difference between the activity from rotenone-containing buffer and rotenone-absent buffer was considered as RCC I activity. […] For measuring RCC I/V and II activity, the changes in absorbance at 340 and 600 nm, respectively, were determined every 1 min for 6 min. For measuring RCC III and RCC IV, the changes in absorbance at 550 nm were measured every 10 s for 2 min.
# RCC IV = RCC IV activity in submitochondrial particles; format: biochemical, rat; set-up: key to RCC IV at 50XCmax / RCC IV at 100XCmax: activity relative to DMSO-treated controls (control set as 1 = 100%); settings: 50XCmax; DMSO treated samples set as 1; in %
# Procedure: as §2
# RCC V = RCC V activity in submitochondrial particles; format: biochemical, rat; settings: DMSO treated samples set as 1; as to RCC V at 5XCmax: key: 0 indicates that the drug had no effects (negative)
# Outline: as §1
# [2] = tested on: isolated rat liver mitochondria; assay: Mitochondrial inner membrane potential (MMP), Rhodamine 123; format: biochemical; settings: difference in signal between KI and DMSO treated samples at the end of experiments
# Description: Fig. 3 KI effects on mitochondrial inner membrane potential (MMP). […] In a, c, data are means and standard derivations from three separate experiments. *p < 0.05 as compared to DMSO-treated samples at the end of experiments. In b, data are means of two independent experiments
# [3] = tested on: isolated rat liver mitochondria; assay: Mitochondrial swelling (absorbance at 535 nm); format: biochemical; settings: difference in signal between KI and DMSO treated samples at the end of experiments; as to Swelling 5XCmax: key: 0 indicates that the drug had no effects (negative)
# [4] = tested on: isolated rat liver mitochondria; assay: Mitochondrial toxicity, any endpoint, intact mitochondria and submitochondrial particles; format: biochemical; settings: any endpoint
# Procedure: Rats were anesthetized by an intraperitoneal injection of Nembutal and the liver perfused with PBS to remove the blood. The liver was then cut into small pieces and homogenized using a Dounce type homogenizer in the ice-cold isolation buffer (IB) containing 200 mM sucrose, 10 mM Tris-MOPS, 1 mM EGTA (pH 7.4). The sample was then centrifuged at 600g for 10 min. The supernatant was further centrifuged at 7500g for 10 min, and the pellets was washed once with the IB and centrifuged again at 7500g for 10 min to collect mitochondria. […] Before drug treatment, the protein concentration was adjusted to 1 mg/ml using appropriate buffer. […] Briefly, mitochondrial and cytosolic fractions from four different preparations using four rats were diluted using the Laemmli protein loading buffer and subject to SDS-PAGE with 4–20% gradient gels. The proteins were blotted to PVDF membranes and detected using antibodies against GAPDH, ATP5A, UQCRC2, SDHB, and NDUFB8.
# The aliquoted stock solutions were kept for less than one month and each tube was used only once. The KIs were added to the mitochondria at 1:1000 dilutions. […] The Cmax data were from clinical trials which used FDA recommend dosages, route of administration, and duration. […] The final concentration of DMSO for drug treatment was always 0.1%, and control treatments were 0.1% DMSO.
# [5] = tested on: isolated rat liver mitochondria; settings: positive control alamethicin treated samples
# [6] = tested on: isolated rat liver mitochondria; assay: Mitochondrial ROS production (CM-H2DCFDA); settings: DMSO treated samples set as 1
# T1 sequence (Q920L2 35-656): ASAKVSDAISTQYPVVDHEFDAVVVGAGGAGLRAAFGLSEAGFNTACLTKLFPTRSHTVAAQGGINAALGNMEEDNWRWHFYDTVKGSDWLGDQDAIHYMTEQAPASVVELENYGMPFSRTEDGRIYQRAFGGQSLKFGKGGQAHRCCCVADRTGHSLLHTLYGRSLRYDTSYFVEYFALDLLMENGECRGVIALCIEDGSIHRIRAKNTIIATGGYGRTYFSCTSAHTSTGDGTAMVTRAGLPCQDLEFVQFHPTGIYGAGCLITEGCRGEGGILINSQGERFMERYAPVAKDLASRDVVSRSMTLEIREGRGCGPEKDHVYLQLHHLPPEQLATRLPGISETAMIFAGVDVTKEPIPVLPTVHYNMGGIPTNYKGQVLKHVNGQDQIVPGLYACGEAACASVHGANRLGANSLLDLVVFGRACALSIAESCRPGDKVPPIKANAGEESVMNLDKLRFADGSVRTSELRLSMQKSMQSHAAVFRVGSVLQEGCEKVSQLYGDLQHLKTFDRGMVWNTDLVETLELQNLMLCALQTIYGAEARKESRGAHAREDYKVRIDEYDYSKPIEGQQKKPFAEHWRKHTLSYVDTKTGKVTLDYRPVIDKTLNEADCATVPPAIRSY
# T1 sequence (P21913 31-282): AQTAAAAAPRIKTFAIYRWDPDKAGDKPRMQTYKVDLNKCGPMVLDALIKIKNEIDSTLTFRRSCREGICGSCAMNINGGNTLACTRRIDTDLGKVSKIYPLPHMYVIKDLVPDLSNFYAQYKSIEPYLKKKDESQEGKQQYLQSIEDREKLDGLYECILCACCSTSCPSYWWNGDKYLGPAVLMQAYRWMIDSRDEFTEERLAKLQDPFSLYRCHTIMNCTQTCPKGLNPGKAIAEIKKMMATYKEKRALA
# T1 sequence (Q641Z9 1-169): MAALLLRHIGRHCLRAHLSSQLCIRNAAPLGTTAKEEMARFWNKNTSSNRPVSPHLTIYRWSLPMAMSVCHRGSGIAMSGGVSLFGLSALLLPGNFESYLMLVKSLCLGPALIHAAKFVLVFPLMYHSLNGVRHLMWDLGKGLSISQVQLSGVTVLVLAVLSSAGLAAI
# T1 sequence (Q6PCT8 57-159): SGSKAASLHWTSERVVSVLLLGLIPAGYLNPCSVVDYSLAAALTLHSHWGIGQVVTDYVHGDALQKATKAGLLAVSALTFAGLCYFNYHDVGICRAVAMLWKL
compound,measurement,setting,value
C=CC(=O)N1CCC[C@@H](n2nc(-c3ccc(Oc4ccccc4)cc3)c3c(N)ncnc32)C1 [Ibrutinib],State 3 respiration driven by succinate at 1XCmax,[1]; 1XCmax,0
same,State 4 respiration driven by succinate at 1XCmax,[1]; 1XCmax,0
same,State 3 respiration driven by succinate at 2.5XCmax,[1]; 2.5XCmax,0
same,State 4 respiration driven by succinate at 2.5XCmax,[1]; 2.5XCmax,0
same,State 3 respiration driven by succinate at 5XCmax,[1]; 5XCmax,0
same,State 4 respiration driven by succinate at 5XCmax,[1]; 5XCmax,0
same,State 3 respiration driven by succinate at 10XCmax,[1]; 10XCmax,0
same,State 4 respiration driven by succinate at 10XCmax,[1]; 10XCmax,0
same,State 3 respiration driven by succinate at 20XCmax,[1]; 20XCmax,0
same,State 4 respiration driven by succinate at 20XCmax,[1]; 20XCmax,0
same,State 3 respiration driven by succinate at 30XCmax,[1]; 30XCmax,0
same,State 4 respiration driven by succinate at 30XCmax,[1]; 30XCmax,0
same,State 3 respiration driven by succinate at 50XCmax,[1]; 50XCmax,0
same,State 4 respiration driven by succinate at 50XCmax,[1]; 50XCmax,0
same,State 3 respiration driven by succinate at 100XCmax,[1]; 100XCmax,0
same,State 4 respiration driven by succinate at 100XCmax,[1]; 100XCmax,0
same,RCC I at 10XCmax,RCC I,0
same,RCC II at 1.0XCmax,RCC II; 1.0XCmax,0
same,RCC II at 2.5XCmax,RCC II; 2.5XCmax,0
same,RCC II at 5XCmax,RCC II; 5XCmax,0
same,RCC II at 10XCmax,RCC II; 10XCmax,0
same,RCC II at 20XCmax,RCC II; 20XCmax,0
same,RCC II at 30XCmax,RCC II; 30XCmax,0
same,RCC II at 50XCmax,RCC II; 50XCmax,0
same,RCC II at 100XCmax,RCC II; 100XCmax,0
same,RCC III at 100XCmax,RCC III,0
same,RCC IV at 50XCmax,RCC IV,0
same,RCC V at 5XCmax,RCC V; 5XCmax,0
same,RCC V at 50XCmax,RCC V; 50XCmax,0
same,MMP measured by Rhodamine 123 at 1XCmax,[2]; 1XCmax,0
same,MMP measured by Rhodamine 123 at 2.5XCmax,[2]; 2.5XCmax,0
same,MMP measured by Rhodamine 123 at 5XCmax,[2]; 5XCmax,0
same,MMP measured by Rhodamine 123 at 10XCmax,[2]; 10XCmax,0
same,MMP measured by Rhodamine 123 at 20XCmax,[2]; 20XCmax,0
same,MMP measured by Rhodamine 123 at 30XCmax,[2]; 30XCmax,0
same,MMP measured by Rhodamine 123 at 50XCmax,[2]; 50XCmax,0
same,MMP measured by Rhodamine 123 at 100XCmax,[2]; 100XCmax,0
same,Swelling 1XCmax,[3]; 1XCmax,0
same,Swelling 2.5XCmax,[3]; 2.5XCmax,0
same,Swelling 5XCmax,[3]; 5XCmax,0
same,Swelling 10XCmax,[3]; 10XCmax,0
same,Swelling 20XCmax,[3]; 20XCmax,0
same,Swelling 30XCmax,[3]; 30XCmax,0
same,Swelling 50XCmax,[3]; 50XCmax,0
same,Swelling 100XCmax,[3]; 100XCmax,0
same,lowest concentration causing significant mitochondrial toxicity,[4],50 fold Cmax
same,Cytochrome c release 1XCmax,[5]; 1XCmax,0
same,Cytochrome c release 2.5XCmax,[5]; 2.5XCmax,0
same,Cytochrome c release 5XCmax,[5]; 5XCmax,0
same,Cytochrome c release 10XCmax,[5]; 10XCmax,0
same,Cytochrome c release 20XCmax,[5]; 20XCmax,0
same,Cytochrome c release 30XCmax,[5]; 30XCmax,0
same,Cytochrome c release 50XCmax,[5]; 50XCmax,0
same,Cytochrome c release 100XCmax,[5]; 100XCmax,0
same,ROS measured by CM-H2DCFDA at 1XCmax,[6]; 1XCmax,0
same,ROS measured by CM-H2DCFDA at 2.5XCmax,[6]; 2.5XCmax,0
same,ROS measured by CM-H2DCFDA at 5XCmax,[6]; 5XCmax,0
same,ROS measured by CM-H2DCFDA at 10XCmax,[6]; 10XCmax,0
same,ROS measured by CM-H2DCFDA at 20XCmax,[6]; 20XCmax,0
same,ROS measured by CM-H2DCFDA at 30XCmax,[6]; 30XCmax,0
same,ROS measured by CM-H2DCFDA at 50XCmax,[6]; 50XCmax,0
same,ROS measured by CM-H2DCFDA at 100XCmax,[6]; 100XCmax,0
